In patent US12139520B2 (priority 2020, dated 2024):
Bridge positions count the residues as written; N and C are the ends. Square brackets hold non-standard residues; d marks the D form. Peptide text beside a SMILES is read from it. Hyp = O=C(O)[C@@H]1C[C@@H](O)CN1

Key:
hAMY3 receptor = target: T1, hAMY3 receptor (Homo sapiens, UniProt O60896+P30988); experiment: cAMP assay for in vitro receptor activation, hAMY3-R; assay type: cell-based; conditions: cAMP assay, hAMY3 receptor; read-out: hAMY3R EC50
T1 sequence (P30988 25-474): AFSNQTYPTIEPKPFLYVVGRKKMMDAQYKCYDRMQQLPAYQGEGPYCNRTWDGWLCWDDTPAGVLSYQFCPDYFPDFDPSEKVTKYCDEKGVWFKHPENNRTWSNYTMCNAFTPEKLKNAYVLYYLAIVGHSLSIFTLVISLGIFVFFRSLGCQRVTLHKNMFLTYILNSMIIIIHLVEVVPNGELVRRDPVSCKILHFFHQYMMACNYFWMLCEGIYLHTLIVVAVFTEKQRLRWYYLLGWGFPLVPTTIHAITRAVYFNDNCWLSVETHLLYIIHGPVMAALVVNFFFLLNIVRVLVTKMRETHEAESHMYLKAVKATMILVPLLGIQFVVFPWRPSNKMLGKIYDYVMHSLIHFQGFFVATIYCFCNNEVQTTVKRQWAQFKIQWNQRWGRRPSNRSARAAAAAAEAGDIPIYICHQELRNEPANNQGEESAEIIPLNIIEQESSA
T1 sequence (O60896 24-148 partner): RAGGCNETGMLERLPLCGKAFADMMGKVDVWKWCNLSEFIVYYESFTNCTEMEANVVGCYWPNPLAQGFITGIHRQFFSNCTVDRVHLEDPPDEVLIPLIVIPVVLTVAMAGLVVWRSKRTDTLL
Procedure, shortened: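 Stable hAMY3 cells; DPBS + 0.05% casein + 0.5 mM IBMX; graded compound doses, 30 min, RT; cAMP via HTRF Gs kit, TR-FRET read at 1 h.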

hAM1 receptor = hAM1 receptor (Homo sapiens, UniProt O60895+Q16602); experiment: cAMP assay for in vitro receptor activation, hAM1-R; assay type: cell-based; conditions: cAMP assay, hAM1 receptor; read-out: hAM1R EC50
Chain of hAM1 receptor (Q16602 23-461): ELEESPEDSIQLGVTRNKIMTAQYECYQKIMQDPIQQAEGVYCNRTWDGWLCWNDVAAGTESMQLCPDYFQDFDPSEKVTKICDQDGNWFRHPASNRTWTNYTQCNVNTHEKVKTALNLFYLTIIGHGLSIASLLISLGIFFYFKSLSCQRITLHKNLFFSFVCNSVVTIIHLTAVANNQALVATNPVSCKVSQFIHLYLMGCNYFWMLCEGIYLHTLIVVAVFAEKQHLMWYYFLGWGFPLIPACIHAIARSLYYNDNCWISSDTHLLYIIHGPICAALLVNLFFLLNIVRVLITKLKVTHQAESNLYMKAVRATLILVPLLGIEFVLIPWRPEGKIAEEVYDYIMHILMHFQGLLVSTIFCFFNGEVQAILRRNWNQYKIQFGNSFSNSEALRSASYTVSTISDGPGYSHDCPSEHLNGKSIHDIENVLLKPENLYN
Chain of hAM1 receptor (O60895 43-175 partner): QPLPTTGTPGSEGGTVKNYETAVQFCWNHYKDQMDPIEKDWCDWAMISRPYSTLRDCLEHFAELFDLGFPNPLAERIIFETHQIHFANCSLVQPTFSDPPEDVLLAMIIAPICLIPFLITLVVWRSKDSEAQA
Procedure, shortened: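 Stable hAM1 cells (monoclonal) plated 8000/well; buffer DPBS, 0.05% casein, 0.5 mM IBMX; cAMP read-out.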

[1] = Physical stability of peptide analogues (Thioflavin T fibrillation); assay type: physicochemical; conditions: maximum ThT signal normalized between hAMY maximum and buffer background; 40° C., shaking, four days; pH 7 per table title
Procedure, shortened: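 1 h in 50 mM NaOAc pH 4 / 50 mM NaPi pH 7; + ThT 4 μM final; 40 °C, 700 rpm linear shake 5 min pre-read; ex 450, em 480 nm q10 min × 4 d; LOESS smoothing; max signal normalised to hAMY max vs buffer blank.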

| Compound | EC50 (hAMY3 receptor) | EC50 (hAM1 receptor) | Max ThT signal (%) [1] |
| --- | --- | --- | --- |
| CC[C@H](C)[C@H](NC(=O)[C@H](CCC(N)=O)NC(=O)[C@H](CCC(=O)O)NC(=O)[C@H](C)NC(=O)[C@H](CC(C)C)NC(=O)[C@H](CCCNC(=N)N)NC(=O)[C@H](C)NC(=O)[C@@H](NC(=O)[C@@H](NC(=O)[C@@H]1CSSC[C@H](NC(=O)[C@@H](N)CCCNC(=N)N)C(=O)N[C@@H](CCC(N)=O)C(=O)N[C@@H]([C@@H](C)O)C(=O)N[C@@H](CO)C(=O)N[C@@H]([C@@H](C)O)C(=O)N1)[C@@H](C)O)C(C)C)C(=O)N[C@@H](C)C(=O)N[C@@H](CCC(N)=O)C(=O)N[C@@H](Cc1ccc(O)cc1)C(=O)N[C@H](C(=O)N[C@@H](CC(=O)O)C(=O)N[C@@H](CCCCN)C(=O)N[C@@H](CC(=O)O)C(=O)N[C@@H](CCCCN)C(=O)N[C@@H](CC(=O)O)C(=O)N[C@@H](CCC(N)=O)C(=O)N[C@H](C(=O)N[C@@H](C)C(=O)N1CCC[C@H]1C(=O)N1CCC[C@H]1C(=O)N[C@H](C(=O)N[C@@H](CC(N)=O)C(=O)N[C@H](C(=O)NCC(=O)N[C@@H](CO)C(=O)N[C@@H](CC(N)=O)C(=O)N[C@@H](CO)C(=O)N1C[C@H](O)C[C@H]1C(N)=O)C(C)C)[C@@H](C)O)C(C)C)[C@@H](C)O [compound 32] (H-RCQTSTCTVARLAEQIAQYTDKDKDQVAPPTNVGSNS[Hyp]-NH2; disulfide 2-7; N-terminus assumed) | 0.008 nM | > 5000 nM | 5.300% |
| CC[C@H](C)[C@H](NC(=O)[C@H](CCC(N)=O)NC(=O)[C@H](Cc1c[nH]cn1)NC(=O)[C@H](C)NC(=O)[C@H](CC(C)C)NC(=O)[C@H](CCCNC(=N)N)NC(=O)[C@H](CCC(N)=O)NC(=O)[C@@H](NC(=O)[C@@H](NC(=O)[C@@H]1CSSC[C@H](NC(=O)[C@@H](N)CCCCN)C(=O)N[C@@H](CC(N)=O)C(=O)N[C@@H]([C@@H](C)O)C(=O)N[C@@H](C)C(=O)N[C@@H]([C@@H](C)O)C(=O)N1)[C@@H](C)O)C(C)C)C(=O)N[C@@H](Cc1ccc(O)cc1)C(=O)N[C@@H](C)C(=O)N[C@@H](Cc1ccccc1)C(=O)N[C@H](C(=O)N[C@@H](CC(=O)O)C(=O)N[C@@H](CCCCN)C(=O)N[C@@H](CC(=O)O)C(=O)N[C@@H](CCCCN)C(=O)N[C@@H](CC(=O)O)C(=O)N[C@@H](CC(N)=O)C(=O)N[C@H](C(=O)N[C@@H](C)C(=O)N1CCC[C@H]1C(=O)N1CCC[C@H]1C(=O)N[C@H](C(=O)N[C@@H](CC(N)=O)C(=O)N[C@H](C(=O)NCC(=O)N[C@@H](CO)C(=O)N[C@@H](CC(N)=O)C(=O)NCC(=O)N1C[C@H](O)C[C@H]1C(N)=O)C(C)C)[C@@H](C)O)C(C)C)[C@@H](C)O [compound 42] (H-KCNTATCTVQRLAHQIYAFTDKDKDNVAPPTNVGSNG[Hyp]-NH2; disulfide 2-7; N-terminus assumed) | 0.01 nM | > 5000 nM | 6.300% |
| CC[C@H](C)[C@H](NC(=O)[C@H](CCC(N)=O)NC(=O)[C@H](Cc1c[nH]cn1)NC(=O)[C@H](C)NC(=O)[C@H](CC(C)C)NC(=O)[C@H](CCCNC(=N)N)NC(=O)[C@H](CCC(N)=O)NC(=O)[C@@H](NC(=O)[C@@H](NC(=O)[C@@H]1CSSC[C@H](NC(=O)[C@@H](N)CCCCN)C(=O)N[C@@H](CC(N)=O)C(=O)N[C@@H]([C@@H](C)O)C(=O)N[C@@H](C)C(=O)N[C@@H]([C@@H](C)O)C(=O)N1)[C@@H](C)O)C(C)C)C(=O)N[C@@H](Cc1ccc(O)cc1)C(=O)N[C@@H](CCC(N)=O)C(=O)N[C@@H](Cc1ccccc1)C(=O)N[C@H](C(=O)N[C@@H](CC(=O)O)C(=O)N[C@@H](CCCCN)C(=O)N[C@@H](C)C(=O)N[C@@H](CCCCN)C(=O)N[C@@H](CC(=O)O)C(=O)N[C@@H](CC(N)=O)C(=O)N[C@H](C(=O)N[C@@H](C)C(=O)N1CCC[C@H]1C(=O)N1CCC[C@H]1C(=O)N[C@H](C(=O)N[C@@H](CC(N)=O)C(=O)N[C@H](C(=O)NCC(=O)N[C@@H](CO)C(=O)N[C@@H](CC(N)=O)C(=O)NCC(=O)N1C[C@H](O)C[C@H]1C(N)=O)C(C)C)[C@@H](C)O)C(C)C)[C@@H](C)O [compound 43] (H-KCNTATCTVQRLAHQIYQFTDKAKDNVAPPTNVGSNG[Hyp]-NH2; disulfide 2-7; N-terminus assumed) | 0.01 nM | > 5000 nM | 1.200% |
| CC[C@H](C)[C@H](NC(=O)[C@H](CCC(N)=O)NC(=O)[C@H](Cc1c[nH]cn1)NC(=O)[C@H](C)NC(=O)[C@H](CC(C)C)NC(=O)[C@H](CCCNC(=N)N)NC(=O)[C@H](CCC(N)=O)NC(=O)[C@@H](NC(=O)[C@@H](NC(=O)[C@@H]1CSSC[C@H](NC(=O)[C@@H](N)CCCCN)C(=O)N[C@@H](CC(N)=O)C(=O)N[C@@H]([C@@H](C)O)C(=O)N[C@@H](C)C(=O)N[C@@H]([C@@H](C)O)C(=O)N1)[C@@H](C)O)C(C)C)C(=O)N[C@@H](Cc1ccc(O)cc1)C(=O)N[C@@H](CCC(N)=O)C(=O)N[C@@H](Cc1ccccc1)C(=O)N[C@H](C(=O)N[C@@H](CC(=O)O)C(=O)N[C@@H](CCCCN)C(=O)N[C@@H](CC(=O)O)C(=O)N[C@@H](CCCCN)C(=O)N[C@@H](CC(=O)O)C(=O)N[C@@H](C)C(=O)N[C@H](C(=O)N[C@@H](C)C(=O)N1CCC[C@H]1C(=O)N1CCC[C@H]1C(=O)N[C@H](C(=O)N[C@@H](CC(N)=O)C(=O)N[C@H](C(=O)NCC(=O)N[C@@H](CO)C(=O)N[C@@H](CC(N)=O)C(=O)NCC(=O)N1C[C@H](O)C[C@H]1C(N)=O)C(C)C)[C@@H](C)O)C(C)C)[C@@H](C)O [compound 52] (H-KCNTATCTVQRLAHQIYQFTDKDKDAVAPPTNVGSNG[Hyp]-NH2; disulfide 2-7; N-terminus assumed) | 0.011 nM | > 5000 nM | 7.600% |
| CC[C@H](C)[C@H](NC(=O)[C@H](CCC(N)=O)NC(=O)[C@H](Cc1c[nH]cn1)NC(=O)[C@H](C)NC(=O)[C@H](CC(C)C)NC(=O)[C@H](CCCNC(=N)N)NC(=O)[C@H](CCC(N)=O)NC(=O)[C@@H](NC(=O)[C@@H](NC(=O)[C@@H]1CSSC[C@H](NC(=O)[C@@H](N)CCCCN)C(=O)N[C@@H](CC(N)=O)C(=O)N[C@@H]([C@@H](C)O)C(=O)N[C@@H](C)C(=O)N[C@@H]([C@@H](C)O)C(=O)N1)[C@@H](C)O)C(C)C)C(=O)N[C@@H](Cc1ccc(O)cc1)C(=O)N[C@@H](CCC(N)=O)C(=O)N[C@@H](Cc1ccccc1)C(=O)N[C@H](C(=O)N[C@@H](CC(=O)O)C(=O)N[C@@H](C)C(=O)N[C@@H](CC(=O)O)C(=O)N[C@@H](CCCCN)C(=O)N[C@@H](CC(=O)O)C(=O)N[C@@H](CC(N)=O)C(=O)N[C@H](C(=O)N[C@@H](C)C(=O)N1CCC[C@H]1C(=O)N1CCC[C@H]1C(=O)N[C@H](C(=O)N[C@@H](CC(N)=O)C(=O)N[C@H](C(=O)NCC(=O)N[C@@H](CO)C(=O)N[C@@H](CC(N)=O)C(=O)NCC(=O)N1C[C@H](O)C[C@H]1C(N)=O)C(C)C)[C@@H](C)O)C(C)C)[C@@H](C)O [compound 64] (H-KCNTATCTVQRLAHQIYQFTDADKDNVAPPTNVGSNG[Hyp]-NH2; disulfide 2-7) | 0.012 nM | > 5000 nM | 2.700% |
| CC[C@H](C)[C@H](NC(=O)[C@H](CCC(N)=O)NC(=O)[C@H](Cc1c[nH]cn1)NC(=O)[C@H](C)NC(=O)[C@H](CC(C)C)NC(=O)[C@H](CCCNC(=N)N)NC(=O)[C@H](CCC(N)=O)NC(=O)[C@@H](NC(=O)[C@@H](NC(=O)[C@@H]1CSSC[C@H](NC(=O)[C@@H](N)CCCCN)C(=O)N[C@@H](CC(N)=O)C(=O)N[C@@H]([C@@H](C)O)C(=O)N[C@@H](C)C(=O)N[C@@H]([C@@H](C)O)C(=O)N1)[C@@H](C)O)C(C)C)C(=O)N[C@@H](Cc1ccc(O)cc1)C(=O)N[C@@H](CCC(N)=O)C(=O)N[C@@H](Cc1ccccc1)C(=O)N[C@@H](CC(=O)O)C(=O)N[C@@H](CCCCN)C(=O)N[C@@H](CC(=O)O)C(=O)N[C@@H](CCCCN)C(=O)N[C@@H](CC(=O)O)C(=O)N[C@@H](CC(N)=O)C(=O)N[C@H](C(=O)N[C@@H](C)C(=O)N1CCC[C@H]1C(=O)N1CCC[C@H]1C(=O)N[C@H](C(=O)N[C@@H](CC(N)=O)C(=O)N[C@H](C(=O)NCC(=O)N[C@@H](CO)C(=O)N[C@@H](CC(N)=O)C(=O)NCC(=O)N1C[C@H](O)C[C@H]1C(N)=O)C(C)C)[C@@H](C)O)C(C)C [compound 65] (H-KCNTATCTVQRLAHQIYQFDKDKDNVAPPTNVGSNG[Hyp]-NH2; disulfide 2-7; N-terminus assumed) | 0.012 nM | > 5000 nM | 1.000% |
